Data on one compound can be found in patent US5504071A, “Compounds with a sequence of three radicals, the central one being α- a” (Polifarma S.p.A., priority 1990, dated 1996).

Test [1] can be described thus: Writhing test (analgesic activity). It is filed as in vivo. The conditions noted are these: dose not stated. The text has this: (§1) In the following examples will first of all be given the data necessary for synthesis of the compounds according to the present invention. There will then be given data regarding their pharmacological activity, using methods widely known to be valid. In particular, for the pressure tests, spontaneously hyper-tensive rats were used (SHR from the company Charles River), operated in such a way as to enable pressure to be read even when the animals were awake and free to move. In order to evaluate the analgesic activity, the Hot Plate and Writhing Tests were used. For the anti-inflammatory effect the test of carraginine edema was used. Finally, for immuno-modulating activity the evaluation of the stimulation of growth of human lymphocytes in culture was resorted to, after the addition of specific antigens. The results obtained for each synthesized compound are given at the end of each example.
(In general: In writhing tests, fewer writhes than in controls are read as antinociception.)

Test [2] can be described thus: Hot Plate test (analgesic activity). The class given is in vivo. The note with it: dose not stated.
Excerpt: as §1
For orientation: Hot-plate and tail-flick tests time the reaction to a heat stimulus.

A further test has as its system carraginine edema. The experiment in a line: carraginine edema test (anti-inflammatory effect). The class given is in vivo. The note with it: dose not stated.
Excerpt: as §1

The nature of test [3]: analgesic activity, test not specified (Hot Plate and Writhing Tests). The class given is in vivo. The conditions noted are these: test and dose not stated.
Excerpt: as §1

Test [4] concerns spontaneously hyper-tensive rats (SHR). Nature of the test: pressure tests in awake spontaneously hypertensive rats. The class given is in vivo. The note with it: 2 mg/Kg i.v.
Excerpt: as §1

Test [5] has as its system human lymphocytes in culture. Nature of the test: stimulation of growth of human lymphocytes in culture after addition of specific antigens. The conditions noted are these: antigen not stated. The class given is cell-based.
Excerpt: as §1

With `COC[C@H](Cc1ccccc1)NC(=O)[C@H](C)NC(=O)[C@@H]1CCCN1C(=O)OCc1ccccc1` [compound 6, Z-(L)-Pro-(L)-Ala-(L)-Pme], the “reduction of contorsions during the Writhing test” value in test [1] is on record as 70%. Also, the “extension of time in the Hot Plate test” value in test [2] stood at 25%. Also, in the test with carraginine edema, the anti-inflammatory effect entry is given as “rather weak”. Moreover, the analgesic activity entry in test [3] is listed as “good analgesic activity”. Moreover, in test [4], the anti-hypertensive effect entry is given as “good anti-hypertensive activity”. Moreover, the reduction of pressure result in test [4] (after one hour) is “approximately 25%”. Also, the “immune response (immuno-stimulating activity)” value in test [5] was “more consistent”.
